Source: US20170088589A1, “STATIN RESISTANCE AND EXPORT” (DANMARKS TEKNISKE UNIVERSITET, priority 2014, published 2017)

What was measured:
[1] = test system: Saccharomyces cerevisiae WT and ARX3 strain harbouring the putative efflux pump MlcE; test: serial dilution plating of WT and ARX3 on YPD agar plates containing different cytotoxic compounds (FIG. 3); assay type: cell-based; conditions: compound in YPD agar, tenfold dilution series, 30° C., 2 days; compactin, lovastatin, simvastatin in active form
Description: Investigation of the potential of MlcE to confer the resistance to statins in yeast. Tenfold dilution series of Saccharomyces cerevisiae WT and ARX3 strain harbouring the putative efflux pump MlcE, starting with an OD600 of 0.02 were prepared from overnight cultures.
Moreover, to determine if the putative efflux pump MlcE has the ability to export statins across the plasma membrane the inventors of the present application also tested whether MlcE confers resistance to statins in yeast. […] The resulting yeast strain ARX3 was tested for susceptibility to compactin by serial dilution plating of both wild type (WT) and ARX3 strains on YPD agar plates supplemented with the active form of compactin (FIG. 3).

[2] = test system: Saccharomyces cerevisiae strains (wt, ARX3, AR29 pdr5Δ, pdr5Δ); test: agar-plate dilution assay (spot assay) with lovastatin, PDR5 complementation (FIG. 4); conditions: lowest tested concentration (0.74 mM) of activated lovastatin, 30° C., 3 days
Description: The constructed strains response to different lovastatin levels present in the growth medium were tested using a agar-plate dilution assay (also known as a spot assay). Overnight cultures of the four Saccharomyces cerevisiae strains (wt, ARX3, AR29 pdr5Δ, pdr5Δ,) were diluted to OD600 of 0.2 and a fivefold dilution series for each strain was made. […] The growth of the individual strain as a function of time was recorded by photography.

CC[C@H](C)C(=O)O[C@H]1C[C@@H](C)C=C2C=C[C@H](C)[C@H](CC[C@@H]3C[C@@H](O)CC(=O)O3)[C@H]21 [lovastatin]
resistance of MlcE-expressing strain ARX3 compared to the wild type strain [1]: increased resistance | growth of pdr5Δ strain [2]: lack of growth

CC(C)c1c(C(=O)Nc2ccccc2)c(-c2ccccc2)c(-c2ccc(F)cc2)n1CC[C@@H](O)C[C@@H](O)CC(=O)O [atorvastatin]
resistance of MlcE-expressing strain ARX3 compared to the wild type strain [1]: does not show an increased resistance

COc1cc(C=O)ccc1O [vanillin]
resistance of MlcE-expressing strain ARX3 compared to the wild type strain [1]: does not show an increased resistance

CC[C@H](C)C(=O)O[C@H]1CCC=C2C=C[C@H](C)[C@H](CC[C@@H]3C[C@@H](O)CC(=O)O3)[C@H]21 [compactin]
resistance of MlcE-expressing strain ARX3 compared to the wild type strain [1]: increased resistance

COc1c(C)c2c(c(O)c1C/C=C(\C)CCC(=O)O)C(=O)OC2 [mycophenolic acid]
resistance of MlcE-expressing strain ARX3 compared to the wild type strain [1]: does not show an increased resistance
